Results published in publication PMC6470795 (Molecules, 2019).
Like-named read-outs stand apart in the source and are kept apart here.

Legend:
[1] = test system: c-Met phosphorylation; assay: Western blot, phosphorylation of c-Met in 97H cells; assay type: cell-based, human
Description: (§1) 97H cells seeded in 60-mm dishes at a density of 5 × 10^5 cells/well were incubated with or without compound 31e at the indicated concentrations for 4 h. After incubation, the cells were washed twice with ice-cold PBS, and then lysed in RIPA lysis buffer (Radio Immunoprecipitation Assay) containing 150 mM NaCl, 50 mM Tris (pH 7.4), 1% (w/v) sodium deoxycholate, 1% (v/v) Triton X-100, 0.1% (w/v) SDS, and 1 mM EDTA (ethylenediaminetetraacetic acid) (Beyotime, Shanghai, China). The lysates were incubated at 0 °C for 30 min, and vortexed every 10 min intermittently, then the total proteins were harvested by centrifuging at 12,500 g for 15 min. The protein concentrations were determined by a BCA (bicinchoninic acid) Protein Assay Kit (Thermo Fisher Scientific, Rockford, IL, USA), and then the protein extracts were reconstituted in loading buffer containing 62 mM Tris-HCl, 2% SDS (sodium dodecyl sulfate), 10% glycerol, and 5% β-mercaptoethanol (Beyotime, Shanghai, China), and boiled at 100 °C for 3 min. An equal amount of the proteins (40 μg) was separated by 8%–12% sodium dodecyl sulphate-polyacrylamide gel electrophoresis (SDS-PAGE) and were transferred to nitrocellulose membranes (Amersham Biosciences, Little Chalfont, Buckinghamshire, UK). After blocking with 5% non-fat dried milk in TBS containing 1% Tween-20 for 90 min at room temperature, the membranes were incubated overnight with specific primary antibodies (Abcam, London, England) at 4 °C. After three washes in TBST, the membranes were incubated with the appropriate HRP-conjugated (Horseradish Peroxidase-conjugated) secondary antibodies at room temperature for 2 h. The blots were developed with enhanced chemiluminescence (Pierce, Rockford, IL, USA) and detected by an LAS4000 imager (GE Healthcare, Waukesha, WI, USA).
(§2) Figure 5 Compound 31e inhibits c-Met phosphorylation and downstream signaling in cancer cell lines. Cells treated with compound 31e for 1 h or 2 h were then lysed and subjected to Western blot analysis.

[2] = test system: hepatic carcinoma 97H cells; assay: Anti-cell-migration study; assay type: cell-based, human; conditions: 36 h
Description: 97H cells were plated in a 6-well culture dish at 5 × 10^4 cells/dish and grown for 24 h, and the non-migrated cells were scraped off the upper surface of the membrane with a 10 μL pipette. The medium was then replaced with 10% serum DMEM medium and treated with compound 31e at the indicated concentrations for another 36 h. After washing with phosphate buffer solution (PBS), the cell images were immediately detected by a Zeiss LSM 570 laser scanning confocal microscope (Carl Zeiss, Jena, Germany).
Figure 4 Effect of 31e on the migration of hepatic carcinoma 97H cells. Hepatic carcinoma 97H cells (50 × 10^4 cells) suspended in free serum Dulbecco’s Modified Eagle Medium (DMEM) containing 31e for 36 h were photographed under a phase contrast microscopy (magnification: 4 × objective). All results were expressed as the mean ± SD of at least three independent experiments.

[3] = test system: Pc9 (human non-small cell lung cancer cells); assay: MTT antiproliferative assay, Pc9 cells; assay type: cell-based; conditions: read-out: IC50 Pc9
Description: (§3) The cell lines, 97H (human liver cancer cell), Pc9 (human non-small cell lung cancer), HELA (human epithelial cervical cancer cell line), SJSA1 (human osteosarcoma cells), LO2 (human normal liver cells), and HLF (human embryonic lung fibroblast), used in this study were purchased from the Guangzhou ginny ou Biotechnology Co. Ltd. (Guangzhou, China). Cell lines were cultivated in Dulbecco’s Modified Eagle Medium (DMEM) containing 10% (v/v) heat-inactivated fetal bovine serum (FBS), 100 units/mL penicillin, and 100 μg/mL streptomycin.
(§4) For the cytotoxicity assay, the cells grown in the logarithmic phase were seeded into 96-well plates (5 × 10^3 cells/well) for 24 h, and then exposed to different concentrations of the test compounds for 48 h. After the attached cells had been incubated with 5 mg/mL MTT (Sigma, St. Louis, MO, USA) for another 4 h, the suspension was discarded and subsequently the dark blue crystals (formazan) were solubilized in dimethyl sulfoxide (DMSO). Then, the absorbance was measured at 570 nm using a multifunction microplate reader (Molecular Devices, Flex Station 3) (Thermo Fisher Scientific, San Jose, CA, USA), and each experiment was performed at least in triplicate.

[4] = test system: LO2 (human normal liver cells); assay: MTT assay, LO2 normal cells; assay type: cell-based; conditions: 48 h, read-out: IC50 LO2
Description: as §3, §4

[5] = target: T1, c-Met enzyme (Homo sapiens, UniProt P08581); assay: Kinase inhibition assay; assay type: biochemical
T1 construct: purchased Invitrogen
Description: The c-Met enzymes and the Z’-LYTE Kinase Kit were purchased from Invitrogen. The tested compounds were used in concentrations of 0.001 to 10 mM. Briefly, 1 μL of an inhibitor or 5% DMSO, 2 μL of enzyme, and 2 μL of substrate/ATP mix were added to a 384-well low volume plate L and incubated at room temperature for 60 min. Then, 5 μL of ADP-Glo™ Reagent was added, and the mixture was incubated at room temperature for 40 min. Finally, 10 μL of Kinase Detection Reagent was added, and the mixture was incubated at room temperature for 30 min. The plate was measured on a multifunction microplate reader (Molecular Devices, Flex Station 3), and the luminescence was recorded (integration time 0.5–1 s). Curve fitting and data presentations were performed using Graph Pad Prism version 5.0 (GraphPad Inc., La Jolla, CA, USA). Every experiment was repeated at least three times.

[6] = test system: hepatic carcinoma 97H cells; assay: MTT antiproliferative assay, 97H cells; assay type: cell-based, human; conditions: Homo sapiens
Description: as §3, §4

[7] = test system: HLF (human embryonic lung fibroblast cells); assay: MTT assay, HLF normal cells; assay type: cell-based; conditions: 48 h, read-out: IC50 HLF
Description: as §3, §4

[8] = test system: Akt phosphorylation; assay: Western blot, phosphorylation of Akt in 97H cells; assay type: cell-based, human
Description: as §1, §2

[9] = test system: SJSA1 (human osteosarcoma cells); assay: MTT antiproliferative assay, SJSA1 cells; assay type: cell-based; conditions: read-out: IC50 SJSA1
Description: as §3, §4

[10] = test system: Hela (human epithelial cervical cancer cells); assay: MTT antiproliferative assay, Hela cells; assay type: cell-based; conditions: 48 h, read-out: IC50 Hela
Description: as §3, §4

[11] = test system: hepatic carcinoma 97H cells; assay: Cell cycle analysis by flow cytometry (PI staining); assay type: cell-based, human
Description: 97H cells were seeded in 6-well plates (3 × 10^5 cells/well) and incubated in the presence or absence of compound 31e at the indicated concentrations for 24 h. Then, cells were harvested by centrifugation and fixed in 70% ice-cold ethanol overnight. The ethanol was removed the next day, and then the cells were resuspended in the ice-cold PBS and treated with RNAse A (Keygen Biotech, Nanjing, China) at 37 °C for 30 min, followed by incubation with the DNA staining solution propidium iodide (PI) (Keygen Biotech, Nanjing, China) at 4 °C for 30 min. About 10,000 events were detected by flow cytometry (Epics XL, Beckman Coulter, Fullerton, CA, USA) at 488 nm. The data regarding the number of cells in different phases of the cell cycle were analyzed by EXPO32 ADC analysis software (Beckman Coulter, Fullerton, CA, USA).
Figure 3 Effect of 31e on cell cycle progression. (A) 97H cells (3 × 10^5 cells/sample) were treated with increasing concentrations of 31e for 24 h, cells were harvested, fixed with 70% ethanol, and stained with propidium iodide (PI). The cellular DNA content was then determined by flow cytometry analysis. (B) Quantitative analysis of the percentage of cells in each cell cycle phase was analyzed by EXPO32 ADC analysis software.

[12] = same concentration, 2 h versus 1 h
[13] = 97H cells, MTT, 48 h, read-out: IC50 of Against 97H cells

T1 sequence (P08581 25-1390): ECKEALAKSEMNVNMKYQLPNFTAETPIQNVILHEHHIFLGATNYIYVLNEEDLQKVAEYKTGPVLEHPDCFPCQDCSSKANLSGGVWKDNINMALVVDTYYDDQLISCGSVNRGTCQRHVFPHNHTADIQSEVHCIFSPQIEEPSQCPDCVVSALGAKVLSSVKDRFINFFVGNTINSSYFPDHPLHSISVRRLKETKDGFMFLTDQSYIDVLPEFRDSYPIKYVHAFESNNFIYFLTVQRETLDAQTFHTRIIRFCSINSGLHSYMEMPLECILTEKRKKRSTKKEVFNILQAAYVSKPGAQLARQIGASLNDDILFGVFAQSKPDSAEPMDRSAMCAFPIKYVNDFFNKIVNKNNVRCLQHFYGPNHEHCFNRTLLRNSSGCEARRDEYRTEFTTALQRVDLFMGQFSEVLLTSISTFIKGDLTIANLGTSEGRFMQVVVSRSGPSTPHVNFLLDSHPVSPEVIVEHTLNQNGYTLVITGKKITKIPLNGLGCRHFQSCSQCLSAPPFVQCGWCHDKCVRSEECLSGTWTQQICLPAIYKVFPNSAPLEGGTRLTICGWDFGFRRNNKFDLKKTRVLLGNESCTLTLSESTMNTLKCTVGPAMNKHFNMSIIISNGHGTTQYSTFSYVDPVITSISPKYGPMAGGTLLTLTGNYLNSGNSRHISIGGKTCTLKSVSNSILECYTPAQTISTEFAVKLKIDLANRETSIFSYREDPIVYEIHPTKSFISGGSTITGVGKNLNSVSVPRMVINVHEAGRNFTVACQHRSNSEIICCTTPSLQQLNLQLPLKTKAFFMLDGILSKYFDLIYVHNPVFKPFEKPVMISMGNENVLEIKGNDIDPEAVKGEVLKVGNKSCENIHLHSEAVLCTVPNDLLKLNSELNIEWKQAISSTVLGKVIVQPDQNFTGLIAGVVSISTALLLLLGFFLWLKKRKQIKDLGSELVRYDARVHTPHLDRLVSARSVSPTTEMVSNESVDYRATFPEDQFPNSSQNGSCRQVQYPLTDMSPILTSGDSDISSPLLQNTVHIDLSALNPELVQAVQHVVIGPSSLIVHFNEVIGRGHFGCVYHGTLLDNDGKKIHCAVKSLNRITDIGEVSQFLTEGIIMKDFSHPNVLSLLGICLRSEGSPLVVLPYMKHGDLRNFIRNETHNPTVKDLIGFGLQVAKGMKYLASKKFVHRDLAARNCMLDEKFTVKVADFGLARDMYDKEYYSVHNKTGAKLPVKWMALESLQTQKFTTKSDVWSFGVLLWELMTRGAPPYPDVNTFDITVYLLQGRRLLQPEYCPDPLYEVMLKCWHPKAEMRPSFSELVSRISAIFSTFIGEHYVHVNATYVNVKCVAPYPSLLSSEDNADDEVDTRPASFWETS

Q: What does the source list for `CC(c1cccc(-c2ncc(OCC3CCN(C)CC3)cn2)c1)n1cc(-c2cccc(C#N)c2)cnc1=O` (stereo not drawn) [Compound 31e, 5-(3-cyanophenyl)-1-(1-(3-(5-((1-methylpiperidin-4-yl)methoxy)pyrimidin-2-yl)phenyl)ethyl)pyrimidin-2(1H)-one]?
A: phosphorylation of c-Met ([1]; 100 nM, 1 h): completely inhibited; phosphorylation level of c-Met ([1]; 10 or 50 nM, 1 h): suppressed in a dose-dependent manner; inhibition of c-Met phosphorylation [1, 12]: more obvious; melting point: 98.2 to 99.9 °C; inhibition of migration ([2]; 10 nM): moderate inhibition of migration; inhibition of migration ([2]; 50 nM): significantly suppressed; inhibition of migration ([2]; 100 nM): completely suppressed; IC50 ([3]; PC-9, Pc9 cells, MTT, 48 h): 42.9 ± 0.13 µM; IC50 ([4]; LO2 normal cells, MTT): > 50 µM; IC50 [5]: 0.032 ± 0.06 µM; IC50 [6, 13]: 0.026 µM; IC50 ([6]; 97H cells, MTT, 48 h, read-out: IC50 value, 97H cells): 0.026 µM; IC50 ([7]; HLF normal cells, MTT): > 50 µM; phosphorylation of Akt ([8]; 100 nM, 1 h): completely inhibited; phosphorylation level of Akt ([8]; 10 or 50 nM, 1 h): suppressed in a dose-dependent manner; inhibition of Akt phosphorylation [8, 12]: more obvious; IC50 ([9]; SJSA-1, SJSA1 cells, MTT, 48 h): > 50 µM; IC50 ([10]; Hela cells, MTT): > 50 µM; population of cells in the G1 phase ([11]; 10 nM, 24 h (vehicle DMSO 70.42%)): 83.84%; population of cells in the G1 phase ([11]; 100 nM, 24 h): 90.88%; population of cells in the G2/M phase ([11]; 100 nM, 24 h): 5.78%

Q: For `CC(c1cccc(-c2ncc(OCC3CCN(C)CC3)cn2)c1)n1cc(-c2cc(F)cc(F)c2)cnc1=O` (stereo not drawn) [Compound 31g, 5-(3,5-difluorophenyl)-1-(1-(3-(5-((1-methylpiperidin-4-yl)methoxy)pyrimidin-2-yl)phenyl)ethyl)pyrimidin-2(1H)-one], which melting point is on record?
A: 86.9 to 88.6 °C

Q: What about the IC50 [6, 13] of the same molecule?
A: 0.332 ± 0.044 µM

Q: With `CN(C)CCCSc1cnc(-c2cccc(Cn3cc(-c4cccc(C#N)c4)cc(F)c3=O)c2)nc1` [Compound 36a, 5-(3-cyanophenyl)-1-(3-(5-((3-(dimethylamino)propyl)thio)pyrimidin-2-yl)benzyl)-3-fluoropyridin-2(1H)-one] as the molecule, how does the melting point read?
A: 116.3 to 117.9 °C

Q: And the IC50 [6, 13]?
A: 0.149 ± 0.035 µM

Q: Which melting point does the source give for `CN(C)CCCSc1cnc(-c2cccc(Cn3cc(-c4cncc(F)c4)cc(F)c3=O)c2)nc1` [Compound 36b, 1-(3-(5-((3-(dimethylamino)propyl)thio)pyrimidin-2-yl)benzyl)-5,5′-difluoro-[3,3′-bipyridin]-6(1H)-one] here?
A: 128.3 to 129.9 °C

Q: What about the IC50 [6, 13] of the same molecule?
A: 3.81 ± 0.045 µM

Q: With `CN1CCC(COc2cnc(-c3cccc(Cn4nc(-c5cccc(C#N)c5)ccc4=O)c3)nc2)CC1` [Tepotinib, reference compound] as the molecule, how does the IC50 ([3]; PC-9, 48 h) read?
A: 8.105 ± 0.012 µM

Q: What about the IC50 [4] of the same molecule?
A: 10.3 ± 0.46 µM

Q: And the IC50 ([6]; read-out: IC50 of Against 97H cells)?
A: 0.013 ± 0.008 µM

Q: What about the IC50 [7] of the same molecule?
A: 9.44 ± 0.15 µM

Q: And the IC50 ([9]; SJSA-1, 48 h)?
A: 12.2 ± 0.35 µM

Q: And the IC50 ([10]; HeLa)?
A: 11.2 ± 0.32 µM
